Values of other authors as cited in patent US20060110359A1, “Cellular delivery of natriuretic peptides” (priority 2002, published 2006).

Legend:
[1] = tested on: brain edema; conditions: into rat lateral ventricle or intravenously
[2] = tested on: brain edema; conditions: for effect on brain edema: experimental brain hemorrhage in rats

CC[C@H](C)[C@@H]1NC(=O)[C@H](CCCNC(=N)N)NC(=O)[C@H](CC(=O)O)NC(=O)[C@H](CCSC)NC(=O)[C@H](CCCNC(=N)N)NC(=O)CNC(=O)CNC(=O)[C@H](Cc2ccccc2)NC(=O)[C@@H](NC(=O)[C@H](CO)NC(=O)[C@H](CO)NC(=O)[C@H](CCCNC(=N)N)NC(=O)[C@H](CCCNC(=N)N)NC(=O)[C@H](CC(C)C)NC(=O)[C@@H](N)CO)CSSC[C@@H](C(=O)N[C@@H](CC(N)=O)C(=O)N[C@@H](CO)C(=O)N[C@@H](Cc2ccccc2)C(=O)N[C@@H](CCCNC(=N)N)C(=O)N[C@@H](Cc2ccc(O)cc2)C(=O)O)NC(=O)CNC(=O)[C@H](CC(C)C)NC(=O)CNC(=O)[C@H](CO)NC(=O)[C@H](CCC(N)=O)NC(=O)[C@H](C)NC(=O)CNC1=O [ANP, atrial natriuretic peptide]
brain water and sodium accumulation [1]: inhibit brain water and sodium accumulation | brain water and sodium ([2]; given after a 4-hour delay, 24 hours after hemorrhage, rats): significantly reduced

OC[C@@H](O)[C@@H](O)[C@H](O)[C@H](O)CO [mannitol]
effect on brain edema [2]: Neither mannitol nor 8-bromo-cGMP affected brain edema

Nc1nc2c(nc(Br)n2[C@@H]2O[C@@H]3COP(=O)(O)O[C@H]3[C@H]2O)c(=O)[nH]1 [8-bromo-cGMP]
effect on brain edema [2]: Neither mannitol nor 8-bromo-cGMP affected brain edema
